Like-named read-outs stand apart in the source and are kept apart here.
Assays:
[1] = molecular target: T1, human orexin-1 receptor (Homo sapiens, UniProt O43613); assay: Intracellular calcium measurements (FLIPR), orexin receptor antagonistic activity; format: cell-based; details: CHO cells expressing human orexin-1 receptor; agonist 10 nM human orexin-A; fluo-3 calcium signal; read-out: IC50 OX1
T1 construct: expressed in transfected cells; host or cells: CHO cells (G418 selection)
T1 sequence (O43613 1-425): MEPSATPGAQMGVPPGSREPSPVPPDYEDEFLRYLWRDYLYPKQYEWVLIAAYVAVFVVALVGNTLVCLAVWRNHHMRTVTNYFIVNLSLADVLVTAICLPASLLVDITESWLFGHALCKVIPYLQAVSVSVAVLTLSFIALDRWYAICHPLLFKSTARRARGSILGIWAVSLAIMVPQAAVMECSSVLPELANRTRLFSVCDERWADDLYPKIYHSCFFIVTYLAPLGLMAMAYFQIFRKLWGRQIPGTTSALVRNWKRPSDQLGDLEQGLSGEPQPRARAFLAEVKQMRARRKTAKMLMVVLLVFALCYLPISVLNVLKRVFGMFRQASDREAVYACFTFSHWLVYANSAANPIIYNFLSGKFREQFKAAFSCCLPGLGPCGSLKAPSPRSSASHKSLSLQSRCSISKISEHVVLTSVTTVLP
Experimental: (§1) The orexin receptor antagonistic activity of the compounds of formula (II) is determined in accordance with the following experimental method.
(§2) Intracellular Calcium Measurements:
(§3) Chinese hamster ovary (CHO) cells expressing the human orexin-1 receptor and the human orexin-2 receptor, respectively, are grown in culture medium (Ham F-12 with L-Glutamine) containing 300 μg/ml G418, 100 U/ml penicillin, 100 μg/ml streptomycin and 10% inactivated fetal calf serum (FCS). The cells are seeded at 80'000 cells/well into 96-well black clear bottom sterile plates (Costar) which have been precoated with 1% gelatine in Hanks' Balanced Salt Solution (HBSS). All reagents are from Gibco BRL. The seeded plates are incubated overnight at 37° C. in 5% CO2.
(§4) Human orexin-A as an agonist is prepared as 1 mM stock solution in methanol:water (1:1), diluted in HBSS containing 0.1% bovine serum albumin (BSA) and 2 mM HEPES for use in the assay at a final concentration of 10 nM.
(§5) Antagonists are prepared as 10 mM stock solution in DMSO, then diluted in 96-well plates, first in DMSO, then in HBSS containing 0.1% bovine serum albumin (BSA) and 2 mM HEPES.
(§6) On the day of the assay, 100 μl of loading medium (HBSS containing 1% FCS, 2 mM HEPES, 5 mM probenecid (Sigma) and 3 μM of the fluorescent calcium indicator fluo-3 AM (1 mM stock solution in DMSO with 10% pluronic acid) (Molecular Probes) is added to each well.
(§7) The 96-well plates are incubated for 60 min at 37° C. in 5% CO2. The loading solution is then aspirated and cells are washed 3 times with 200 μl HBSS containing 2.5 mM probenecid, 0.1% BSA, 2 mM HEPES. 100 μl of that same buffer is left in each well.
(§8) Within the Fluorescent Imaging Plate Reader (FLIPR, Molecular Devices), antagonists are added to the plate in a volume of 50 μl, incubated for 20 min and finally 100 μl of agonist is added. Fluorescence is measured for each well at 1 second intervals, and the height of each fluorescence peak is compared to the height of the fluorescence peak induced by 10 nM orexin-A with buffer in place of antagonist.

[2] = molecular target: T2, human orexin-2 receptor (Homo sapiens, UniProt O43614); assay: as above; format: cell-based; details: read-out: IC50 OX2
T2 construct: expressed in transfected cells; host or cells: CHO cells (G418 selection)
T2 sequence (O43614 1-444): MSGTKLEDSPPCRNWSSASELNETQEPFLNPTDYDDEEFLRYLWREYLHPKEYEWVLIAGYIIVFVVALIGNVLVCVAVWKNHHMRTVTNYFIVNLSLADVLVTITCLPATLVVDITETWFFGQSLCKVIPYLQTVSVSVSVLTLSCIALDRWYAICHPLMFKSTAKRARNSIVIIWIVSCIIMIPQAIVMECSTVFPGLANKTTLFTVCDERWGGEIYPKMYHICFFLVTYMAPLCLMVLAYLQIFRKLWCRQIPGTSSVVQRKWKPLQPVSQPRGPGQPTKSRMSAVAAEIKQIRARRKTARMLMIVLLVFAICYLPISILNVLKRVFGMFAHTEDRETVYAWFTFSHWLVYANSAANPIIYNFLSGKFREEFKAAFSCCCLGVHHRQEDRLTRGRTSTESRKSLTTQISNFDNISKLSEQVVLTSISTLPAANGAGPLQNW
Experimental: as §1, §2, §3, §4, §5, §6, §7, §8

[3] = CHO cells expressing human orexin-2 receptor, agonist 10 nM human orexin-A, fluo-3 calcium signal

SMILES | IC50 [1] [nM] | IC50 [2, 3] [nM] | IC50 [2] [nM]
CCn1nc(C)c2c1CCCN([C@@H](C(=O)NC)c1ccccc1)[C@H]2CCc1cc(F)c(C(F)(F)F)c(F)c1 [Example 1 (4S;2′R), (R)-2′-{(S)-4-[2-(3,5-difluoro-4-trifluoromethyl-phenyl)-ethyl]-1-ethyl-3-methyl-4,6,7,8-tetrahydro-1H-1,2,5-triaza-azulen-5-yl}-N-methyl-2′-phenyl-acetamide] | 22 | 12 | 
CCn1nc(C)c2c1CCCN([C@@H](C(=O)NC)c1ccccc1)[C@H]2CCc1ccc(C)c(C)c1 [Example 2 (4S;2′R), (R)-2′-{(S)-4-[2-(3,4-dimethyl-phenyl)-ethyl]-1-ethyl-3-methyl-4,6,7,8-tetrahydro-1H-1,2,5-triaza-azulen-5-yl}-N-methyl-2′-phenyl-acetamide] | 36 | 6 | 
CCn1nc(C)c2c1CCCN([C@@H](C(=O)NC)c1ccccc1)[C@H]2CCc1ccc(C(F)(F)F)cc1F [Example 3 (4S;2′R), (R)-2′-{1-ethyl-(S)-4-[2-(2-fluoro-4-trifluoromethyl-phenyl)-ethyl]-3-methyl-4,6,7,8-tetrahydro-1H-1,2,5-triaza-azulen-5-yl}-N-methyl-2′-phenyl-acetamide] | 138 | 18 | 
CCn1nc(C)c2c1CCCN([C@@H](C(=O)NC)c1ccccc1)[C@H]2CCc1cc(F)c(C)c(F)c1 [Example 4 (4S;2′R), (R)-2′-{(S)-4-[2-(3,5-difluoro-4-methyl-phenyl)-ethyl]-1-ethyl-3-methyl-4,6,7,8-tetrahydro-1H-1,2,5-triaza-azulen-5-yl}-N-methyl-2′-phenyl-acetamide] | 26 |  | 6

— patent US20100029617A1, “1,4,5,6,7,8-HEXAHYDRO-1,2,5-TRIAZA-AZULENE DERIVATIVES AS OREXIN RECEPTOR ANTAGONISTS” (Actelion Pharmaceuticals Ltd., priority 2006, published 2010)
